Data reported in publication PMC8507159, “Degradation of epigallocatechin and epicatechin gallates by a novel tannase TanHcw from Herbaspirillum camelliae” (Microbial Cell Factories, 2021).

System: T1, TanHcw
T1 construct: C-terminal His-tag, pET23a, E. coli BL21(DE3) pLysS; 39 kDa on gel
Experiment: gallic acid release, rhodanine chromogen at […] nm; Lineweaver-Burk
Type: biochemical, Herbaspirillum camelliae
Settings: 0.1-2.0 mM substrate

Q: How did the Km (pH 7.0, 40 °C) turn out when O=C(O[C@@H]1Cc2c(O)cc(O)cc2O[C@@H]1c1ccc(O)c(O)c1)c1cc(O)c(O)c(O)c1 [ECG, (–)–epicatechin-3-gallate] was run?
A: 330 ± 10 µM

Q: How did the Km (pH 7.0, 40 °C) turn out when O=C(O[C@@H]1Cc2c(O)cc(O)cc2O[C@@H]1c1cc(O)c(O)c(O)c1)c1cc(O)c(O)c(O)c1 [EGCG, (–)–epigallocatechin-3-gallate] was run?
A: 300 ± 10 µM

Q: How did the Km (pH 6.0, 30 °C) turn out when COC(=O)c1cc(O)c(O)c(O)c1 [MG, Methyl gallate] was run?
A: 820 ± 20 µM
